Reference: ChEMBL document CHEMBL4418259, “Flavan-3-ol containing foodstuffs” (2012)

molecular target: T1, Taste receptor type 2 member 39 (Homo sapiens) (UniProt P59534); assay: Inhibition of human TAS2R39 expressed in HEK293 cells coexpressing G-protein at 10 mM assessed as reduction in epicatechin gallate-induced intracellular calcium release by Fluo-4-AM dye based fluorescence assay relative to control; format: functional, cell-based
T1 sequence (whole entry): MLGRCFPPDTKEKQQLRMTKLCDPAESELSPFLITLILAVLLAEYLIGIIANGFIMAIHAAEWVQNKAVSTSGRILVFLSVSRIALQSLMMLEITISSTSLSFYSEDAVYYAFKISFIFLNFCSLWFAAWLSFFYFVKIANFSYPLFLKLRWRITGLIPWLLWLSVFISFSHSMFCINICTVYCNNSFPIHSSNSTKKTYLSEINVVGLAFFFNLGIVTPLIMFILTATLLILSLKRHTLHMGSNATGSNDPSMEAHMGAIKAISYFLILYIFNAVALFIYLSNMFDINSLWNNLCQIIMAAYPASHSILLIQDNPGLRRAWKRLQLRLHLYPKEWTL

Question: With COc1cc(/C=C/C(=O)O)cc(OC)c1 as the compound, how does the inhibition read?
Answer: 20%

Question: Which inhibition does the source give for COc1ccc(CCC(=O)O)cc1 here?
Answer: 40%

Question: With COc1cccc(C(=O)O)c1O as the compound, how does the inhibition read?
Answer: 25%

Question: How did the inhibition turn out when O=C(O)Cc1ccccc1 was run?
Answer: 5%

Question: COc1cc(/C=C/C(=O)O)cc(OC)c1OC was tested. Which inhibition did it give?
Answer: 70%

Question: Which inhibition does the source give for COc1ccc(C(=O)O)cc1 here?
Answer: 15%

Question: How did the inhibition turn out when COc1cccc(C(=O)O)c1 was run?
Answer: 5%

Question: Which inhibition does the source give for O=C(O)Cc1ccc(O)c(O)c1 here?
Answer: 15%

Question: How did the inhibition turn out when O=C(O)c1ccc(O)cc1 was run?
Answer: 25%

Question: Which inhibition does the source give for COc1cccc(/C=C/C(=O)O)c1 here?
Answer: 0%

Question: How did the inhibition turn out when O=C(O)c1ccccc1 was run?
Answer: 20%

Question: COc1cc(/C=C/C(=O)O)ccc1O was tested. Which inhibition did it give?
Answer: 65%

Question: For COc1cc(CC(=O)O)cc(OC)c1OC, which inhibition is on record?
Answer: 25%

Question: Which inhibition does the source give for O=C(O)/C=C/c1ccc(O)cc1 here?
Answer: 40%

Question: How did the inhibition turn out when O=C(O)CCc1ccccc1 was run?
Answer: 15%

Question: With O=C(O)c1cc(O)c(O)c(O)c1 as the compound, how does the inhibition read?
Answer: 25%

Question: For COc1cc(CCC(=O)O)ccc1O, which inhibition is on record?
Answer: 35%

Question: How did the inhibition turn out when COc1ccc(CC(=O)O)cc1 was run?
Answer: 15%

Question: Which inhibition does the source give for COc1cc(/C=C/C(=O)O)cc(OC)c1O here?
Answer: 65%

Question: With O=C(O)CCc1ccc(O)c(O)c1 as the compound, how does the inhibition read?
Answer: 30%

Question: With O=C(O)CCCc1ccccc1 as the compound, how does the inhibition read?
Answer: 40%

Question: With COc1ccccc1C(=O)O as the compound, how does the inhibition read?
Answer: 10%

Question: Which inhibition does the source give for O=C(O)Cc1ccc(O)cc1 here?
Answer: 20%

Question: Which inhibition does the source give for COc1ccc(/C=C/C(=O)O)cc1 here?
Answer: 30%

Question: Which inhibition does the source give for COc1ccc(/C=C/C(=O)O)c(OC)c1 here?
Answer: 40%

Question: How did the inhibition turn out when O=C(O)/C=C/c1ccccc1 was run?
Answer: 40%

Question: How did the inhibition turn out when O=C(O)/C=C/c1ccc(O)c(O)c1 was run?
Answer: 30%

Question: With COc1ccc(C(=O)O)cc1OC as the compound, how does the inhibition read?
Answer: 10%

Question: With O=C(O)CCc1ccc(O)cc1 as the compound, how does the inhibition read?
Answer: 25%

Question: Which inhibition does the source give for COc1cc(CCC(=O)O)cc(OC)c1OC here?
Answer: 35%

Question: COc1cc(C(=O)O)cc(OC)c1OC was tested. Which inhibition did it give?
Answer: 20%

Question: How did the inhibition turn out when COc1ccc(CCC(=O)O)cc1OC was run?
Answer: 35%

Question: How did the inhibition turn out when COc1ccccc1/C=C/C(=O)O was run?
Answer: 0%

Question: With O=C(O)c1ccc(O)c(O)c1 as the compound, how does the inhibition read?
Answer: 15%

Question: N[C@@H](Cc1ccccc1)C(=O)O was tested. Which inhibition did it give?
Answer: 0%
